The results in this text go back to US20250295628A1 (priority 2022, published 2025).

A short description of the first data set: Solid stability of compositions 1-11 and compounds 1A-11A: main component content over time under different conditions (Example 37, Table 32). Type of data set: physicochemical. The settings on record: 5 ± 3° C., 0 d (0 day content converted to 100%). As for the experimental part:
Compositions 1-11 and compounds 1A-11A were placed at environments of −25° C., 5±3° C., 25±2° C./60±5% RH, 40±2° C./75±5% RH, 60° C. for 0 d, 5 d and 10 d (d refers to day), respectively, and changes of the main component content (the main component content of 0 day was converted to 100%) were measured, the results are shown in Table 32.
In the case of `O=C([O-])C(CC1CCCCC1)N(CC(O)C(O)C(O)C(O)CO)C(=S)[S][Na].[Na+]` (stereo not drawn) [Compound 6A], the main component content amounted to 100%.
In turn, `COc1ccc(CC(C(=O)[O-])N(CC(O)C(O)C(O)C(O)CO)C(=S)[S][Na])cc1.[Na+]` (stereo not drawn) [Compound 7A] showed a main component content of 100%.

Staying with this data set, now noted: 5 ± 3° C., 5 d.
Take `O=C([O-])C(CC1CCCCC1)N(CC(O)C(O)C(O)C(O)CO)C(=S)[S][Na].[Na+]` (stereo not drawn) [Compound 6A]: the main component content was 98.8%.
Take `COc1ccc(CC(C(=O)[O-])N(CC(O)C(O)C(O)C(O)CO)C(=S)[S][Na])cc1.[Na+]` (stereo not drawn) [Compound 7A]: the main component content is given as 100.0%.

The same data set, now with this note: 5 ± 3° C., 10 d.
With `O=C([O-])C(CC1CCCCC1)N(CC(O)C(O)C(O)C(O)CO)C(=S)[S][Na].[Na+]` (stereo not drawn) [Compound 6A], the main component content is listed as 99.1%.
On the same count and under the same terms, next, `COc1ccc(CC(C(=O)[O-])N(CC(O)C(O)C(O)C(O)CO)C(=S)[S][Na])cc1.[Na+]` (stereo not drawn) [Compound 7A]: 99.1%.

The same data set, now with this note: 25 ± 2° C./60 ± 5% RH, 0 d (0 day content converted to 100%).
Turning to `O=C([O-])C(CC1CCCCC1)N(CC(O)C(O)C(O)C(O)CO)C(=S)[S][Na].[Na+]` (stereo not drawn) [Compound 6A], the main component content came out at 100%.
Same read-out and setting: for `COc1ccc(CC(C(=O)[O-])N(CC(O)C(O)C(O)C(O)CO)C(=S)[S][Na])cc1.[Na+]` (stereo not drawn) [Compound 7A] the value was 100%.

The data set is the same for the next values; noted with them: 25 ± 2° C./60 ± 5% RH, 5 d.
As to `O=C([O-])C(CC1CCCCC1)N(CC(O)C(O)C(O)C(O)CO)C(=S)[S][Na].[Na+]` (stereo not drawn) [Compound 6A], the main component content is 93.1%.
The same measure, in the same setting: for `COc1ccc(CC(C(=O)[O-])N(CC(O)C(O)C(O)C(O)CO)C(=S)[S][Na])cc1.[Na+]` (stereo not drawn) [Compound 7A] the value was 99.3%.

The same data set, now with this note: 25 ± 2° C./60 ± 5% RH, 10 d.
`O=C([O-])C(CC1CCCCC1)N(CC(O)C(O)C(O)C(O)CO)C(=S)[S][Na].[Na+]` (stereo not drawn) [Compound 6A]: the main component content stood at 85.3%.
Still for that read-out and setting: next, `COc1ccc(CC(C(=O)[O-])N(CC(O)C(O)C(O)C(O)CO)C(=S)[S][Na])cc1.[Na+]` (stereo not drawn) [Compound 7A]: 98.0%.

The same data set, now with this note: 40 ± 2° C./75 ± 5% RH, 0 d (0 day content converted to 100%).
Take `O=C([O-])C(CC1CCCCC1)N(CC(O)C(O)C(O)C(O)CO)C(=S)[S][Na].[Na+]` (stereo not drawn) [Compound 6A]: the main component content worked out at 100%.
The same measure, in the same setting: for `COc1ccc(CC(C(=O)[O-])N(CC(O)C(O)C(O)C(O)CO)C(=S)[S][Na])cc1.[Na+]` (stereo not drawn) [Compound 7A] the value was 100%.

Still in this data set, the particulars now being: 40 ± 2° C./75 ± 5% RH, 5 d.
`O=C([O-])C(CC1CCCCC1)N(CC(O)C(O)C(O)C(O)CO)C(=S)[S][Na].[Na+]` (stereo not drawn) [Compound 6A] returned a main component content of 91.5%.
On the same count and under the same terms, for `COc1ccc(CC(C(=O)[O-])N(CC(O)C(O)C(O)C(O)CO)C(=S)[S][Na])cc1.[Na+]` (stereo not drawn) [Compound 7A] the value was 98.7%.

The data set is the same for the next values; noted with them: 40 ± 2° C./75 ± 5% RH, 10 d.
In the case of `O=C([O-])C(CC1CCCCC1)N(CC(O)C(O)C(O)C(O)CO)C(=S)[S][Na].[Na+]` (stereo not drawn) [Compound 6A], the main component content is 91.0%.
Regarding `COc1ccc(CC(C(=O)[O-])N(CC(O)C(O)C(O)C(O)CO)C(=S)[S][Na])cc1.[Na+]` (stereo not drawn) [Compound 7A], the main component content came to 96.5%.

Staying with this data set, now noted: 60° C., 0 d (0 day content converted to 100%).
`O=C([O-])C(CC1CCCCC1)N(CC(O)C(O)C(O)C(O)CO)C(=S)[S][Na].[Na+]` (stereo not drawn) [Compound 6A] came in with a main component content of 100%.
Take `COc1ccc(CC(C(=O)[O-])N(CC(O)C(O)C(O)C(O)CO)C(=S)[S][Na])cc1.[Na+]` (stereo not drawn) [Compound 7A]: the main component content was 100%.

The same data set, now with this note: 60° C., 5 d.
As for `O=C([O-])C(CC1CCCCC1)N(CC(O)C(O)C(O)C(O)CO)C(=S)[S][Na].[Na+]` (stereo not drawn) [Compound 6A], the main component content is on record as 60.4%.
The same measure, in the same setting: for `COc1ccc(CC(C(=O)[O-])N(CC(O)C(O)C(O)C(O)CO)C(=S)[S][Na])cc1.[Na+]` (stereo not drawn) [Compound 7A] the value was 80.2%.

Still in this data set, the particulars now being: 60° C., 10 d.
Regarding `O=C([O-])C(CC1CCCCC1)N(CC(O)C(O)C(O)C(O)CO)C(=S)[S][Na].[Na+]` (stereo not drawn) [Compound 6A], the main component content amounted to 57.8%.
`COc1ccc(CC(C(=O)[O-])N(CC(O)C(O)C(O)C(O)CO)C(=S)[S][Na])cc1.[Na+]` (stereo not drawn) [Compound 7A] yielded a main component content of 80.1%.

Still in this data set, the particulars now being: −25° C., 0 d (0 day content converted to 100%).
For `O=C([O-])C(CC1CCCCC1)N(CC(O)C(O)C(O)C(O)CO)C(=S)[S][Na].[Na+]` (stereo not drawn) [Compound 6A], the main component content stood at 100%.
Still for that read-out and setting: next, `COc1ccc(CC(C(=O)[O-])N(CC(O)C(O)C(O)C(O)CO)C(=S)[S][Na])cc1.[Na+]` (stereo not drawn) [Compound 7A]: 100%.

Staying with this data set, now noted: −25° C., 5 d.
`O=C([O-])C(CC1CCCCC1)N(CC(O)C(O)C(O)C(O)CO)C(=S)[S][Na].[Na+]` (stereo not drawn) [Compound 6A] registered a main component content of 100.6%.
Still for that read-out and setting: for `COc1ccc(CC(C(=O)[O-])N(CC(O)C(O)C(O)C(O)CO)C(=S)[S][Na])cc1.[Na+]` (stereo not drawn) [Compound 7A] the value was 100.1%.

Still in this data set, the particulars now being: −25° C., 10 d.
`O=C([O-])C(CC1CCCCC1)N(CC(O)C(O)C(O)C(O)CO)C(=S)[S][Na].[Na+]` (stereo not drawn) [Compound 6A] yielded a main component content of 99.9%.
The same measure, in the same setting: for `COc1ccc(CC(C(=O)[O-])N(CC(O)C(O)C(O)C(O)CO)C(=S)[S][Na])cc1.[Na+]` (stereo not drawn) [Compound 7A] the value was 100.6%.
